In patent US20230085307A1, “PYRIDAZINONE COMPOUND AND HERBICIDE” (NISSAN CHEMICAL CORPORATION, priority 2019, published 2023):

What was measured:
Japanese bulrush = experiment: Test Example 1: herbicidal activity, application before weed generation under submerged conditions (Table 16, symbol B); type: in vivo, Japanese bulrush (Schoenoplectus juncoides); details: 320 g/ha applied herbicide
Procedure, shortened: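 Alluvial soil was flooded to 4 cm depth, weed seeds were sown mixed and 2.5-leaf rice seedlings were transplanted. On sowing day, the compound's emulsion, diluted in water to a set dose, was applied to the water surface. Plants grew at 25–30 °C and were scored 0–5 after three weeks.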

late watergrass = experiment: Test Example 2: herbicidal activity, application during weed generation under submerged conditions (Table 17, symbol A); type: in vivo, late watergrass (Echinochloa oryzicola); details: AAH 320 g/ha; application during weed generation, submerged conditions
Procedure, shortened: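 Wagner pot, alluvial soil, 4 cm flood; mixed sowing of all species; greenhouse 25° C.–30° C. Emulsifiable formulation, water-diluted to predetermined dose, applied to paddy water at 1–2 leaf stage. Effect rated at 3 wk using the earlier test's scoring criteria.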

barnyard grass [1] = experiment: Test Example 3: herbicidal effect by foliage application, Wagner pot (Table 18, symbol H); type: in vivo, barnyard grass (Echinochloa crus-galli); details: 320 g/ha
Procedure, shortened: (§1)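 Plants were sown in alluvial soil held under 0.1–0.5 cm standing water and grown 14 days in a greenhouse at 25–30 °C. An emulsifiable formulation, water-diluted to the set dose, was then sprayed onto the foliage, and effects were scored three weeks later using previously defined criteria.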

Chinese sprangletop = experiment: Test Example 3: herbicidal effect by foliage application, Wagner pot (Table 18, symbol D); type: in vivo, chinese sprangletop (Leptochloa chinensis); details: 320 g/ha
Procedure, shortened: as §1

southern crabgrass = experiment: Test Example 4: herbicidal effect by soil treatment (Table 19, symbol F); type: in vivo, southern crabgrass (Digitaria ciliaris); details: 320 g/ha
Procedure, shortened: (§2)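 Applied as a water-diluted emulsion, the compound was sprayed onto soil covering newly sown seeds. Evaluation came three weeks after application, in a greenhouse held at 25° C. to 30° C.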

green foxtail = experiment: Test Example 4: herbicidal effect by soil treatment (Table 19, symbol G); type: in vivo, green foxtail (Setaria viridis); details: 320 g/ha
Procedure, shortened: as §2

barnyard grass [2] = experiment: Test Example 4: herbicidal effect by soil treatment (Table 19, symbol H); type: in vivo, barnyard grass (Echinochloa crus-galli); details: 320 g/ha
Procedure, shortened: as §2

blackgrass [3] = experiment: Test Example 4: herbicidal effect by soil treatment (Table 19, symbol J); type: in vivo, blackgrass (Alopecurus myosuroides); details: 320 g/ha
Procedure, shortened: as §2

velvetleaf = experiment: Test Example 4: herbicidal effect by soil treatment (Table 19, symbol M); type: in vivo, velvetleaf (Abutilon theophrasti); details: 320 g/ha
Procedure, shortened: as §2

redroot pigweed = experiment: Test Example 4: herbicidal effect by soil treatment (Table 19, symbol N); type: in vivo, redroot pigweed (Amaranthus retroflexus); details: 320 g/ha
Procedure, shortened: as §2

lambsquarters [4] = experiment: Test Example 4: herbicidal effect by soil treatment (Table 19, symbol O); type: in vivo, lambsquarters (Chenopodium album); details: 320 g/ha
Procedure, shortened: as §2

chickweed = experiment: Test Example 4: herbicidal effect by soil treatment (Table 19, symbol P); type: in vivo, common chickweed (Stellaria media); details: 320 g/ha
Procedure, shortened: as §2

wild oat = experiment: Test Example 5: herbicidal effect by foliage application, plastic box (Table 20, symbol I); type: in vivo, wild oat (Avena fatua); details: foliage application, 320 g/ha, evaluated three weeks after application
Procedure, shortened: (§3)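 Sow seeds spot-wise in sterilized diluvial soil; cover with ~1.5 cm soil. Grow 14 days in greenhouse, 25° C. to 30° C. Spray foliage with emulsion diluted to predetermined amount. Rate effect after 3 weeks.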

blackgrass [5] = experiment: Test Example 5: herbicidal effect by foliage application, plastic box (Table 20, symbol J); type: in vivo, blackgrass (Alopecurus myosuroides); details: foliage application, 320 g/ha, evaluated three weeks after application
Procedure, shortened: as §3

Italian ryegrass = experiment: Test Example 5: herbicidal effect by foliage application, plastic box (Table 20, symbol K); type: in vivo, Italian ryegrass (Lolium multiflorum); details: foliage application, 320 g/ha, evaluated three weeks after application
Procedure, shortened: as §3

windgrass = experiment: Test Example 5: herbicidal effect by foliage application, plastic box (Table 20, symbol L); type: in vivo, windgrass (Apera spica-venti); details: foliage application, 320 g/ha, evaluated three weeks after application
Procedure, shortened: as §3

lambsquarters [6] = experiment: Test Example 5: herbicidal effect by foliage application, plastic box (Table 20, symbol O); type: in vivo, lambsquarters (Chenopodium album); details: foliage application, 320 g/ha, evaluated three weeks after application
Procedure, shortened: as §3

| SMILES | Herbicidal effect on B: Japanese bulrush (grade 0-5) (Japanese bulrush) | herbicidal effect rating, A: late watergrass (late watergrass) | herbicidal effect on H (barnyard grass), rating 0-5 (barnyard grass [1]) | herbicidal effect on D (Chinese sprangletop), rating 0-5 (Chinese sprangletop) | herbicidal effect rating, F: southern crabgrass (southern crabgrass) | herbicidal effect rating, G: green foxtail (green foxtail) | herbicidal effect rating, H: barnyard grass (barnyard grass [2]) | herbicidal effect rating, J: blackgrass (blackgrass [3]) | herbicidal effect rating, M: velvetleaf (velvetleaf) | herbicidal effect rating, N: redroot pigweed (redroot pigweed) | herbicidal effect rating, O: lambsquarters (lambsquarters [4]) | herbicidal effect rating, P: chickweed (chickweed) | herbicidal effect on I: wild oat (wild oat) | herbicidal effect on J: blackgrass (blackgrass [5]) | herbicidal effect on K: Italian ryegrass (Italian ryegrass) | herbicidal effect on L: windgrass (windgrass) | herbicidal effect on O: lambsquarters (lambsquarters [6]) |
| --- | --- | --- | --- | --- | --- | --- | --- | --- | --- | --- | --- | --- | --- | --- | --- | --- | --- |
| CCCC(=O)Oc1c(C)nn(C)c(=O)c1-c1c(-c2ccc(OC)c(F)c2)sc2ccc(F)cc12 [2-087] | 4 (Herbicidal rate of 70% or more and less than 90%) | 0 (Herbicidal rate of 5% or less (almost no effect)) | 3 (Herbicidal rate of 40% or more and less than 70%) | 2 (Herbicidal rate of 20% or more and less than 40%) | 0 (Herbicidal rate of 5% or less (almost no effect)) | 0 (Herbicidal rate of 5% or less (almost no effect)) | 0 (Herbicidal rate of 5% or less (almost no effect)) | 0 (Herbicidal rate of 5% or less (almost no effect)) | 3 (Herbicidal rate of 40% or more and less than 70%) | 3 (Herbicidal rate of 40% or more and less than 70%) | 5 (Herbicidal rate of 90% or more (almost completely withered)) | 3 (Herbicidal rate of 40% or more and less than 70%) | 0 (Herbicidal rate of 5% or less (almost no effect)) | 0 (Herbicidal rate of 5% or less (almost no effect)) | 1 (Herbicidal rate of 5% or more and less than 20%) | 0 (Herbicidal rate of 5% or less (almost no effect)) | 4 (Herbicidal rate of 70% or more and less than 90%) |
| COc1ccc(-c2sc3ccc(F)cc3c2-c2c(O)c(C)nn(C)c2=O)cc1OC [2-088] | 2 (Herbicidal rate of 20% or more and less than 40%) | 3 (Herbicidal rate of 40% or more and less than 70%) | 5 (Herbicidal rate of 90% or more (almost completely withered)) | 3 (Herbicidal rate of 40% or more and less than 70%) | 1 (Herbicidal rate of 5% or more and less than 20%) | 3 (Herbicidal rate of 40% or more and less than 70%) | 4 (Herbicidal rate of 70% or more and less than 90%) | 0 (Herbicidal rate of 5% or less (almost no effect)) | 2 (Herbicidal rate of 20% or more and less than 40%) | 4 (Herbicidal rate of 70% or more and less than 90%) | 4 (Herbicidal rate of 70% or more and less than 90%) | 2 (Herbicidal rate of 20% or more and less than 40%) | 0 (Herbicidal rate of 5% or less (almost no effect)) | 0 (Herbicidal rate of 5% or less (almost no effect)) | 4 (Herbicidal rate of 70% or more and less than 90%) | 0 (Herbicidal rate of 5% or less (almost no effect)) | 4 (Herbicidal rate of 70% or more and less than 90%) |
| CCCC(=O)Oc1c(C)nn(C)c(=O)c1-c1c(-c2ccc(OC)c(OC)c2)sc2ccc(F)cc12 [2-089] | 4 (Herbicidal rate of 70% or more and less than 90%) | 4 (Herbicidal rate of 70% or more and less than 90%) | 4 (Herbicidal rate of 70% or more and less than 90%) | 3 (Herbicidal rate of 40% or more and less than 70%) | 4 (Herbicidal rate of 70% or more and less than 90%) | 5 (Herbicidal rate of 90% or more (almost completely withered)) | 4 (Herbicidal rate of 70% or more and less than 90%) | 0 (Herbicidal rate of 5% or less (almost no effect)) | 4 (Herbicidal rate of 70% or more and less than 90%) | 4 (Herbicidal rate of 70% or more and less than 90%) | 5 (Herbicidal rate of 90% or more (almost completely withered)) | 3 (Herbicidal rate of 40% or more and less than 70%) | 0 (Herbicidal rate of 5% or less (almost no effect)) | 0 (Herbicidal rate of 5% or less (almost no effect)) | 4 (Herbicidal rate of 70% or more and less than 90%) | 0 (Herbicidal rate of 5% or less (almost no effect)) | 4 (Herbicidal rate of 70% or more and less than 90%) |
| CCCC(=O)Oc1c(C)nn(C)c(=O)c1-c1c(-c2ccc3c(c2)OCO3)sc2ccc(F)cc12 [2-091] | 4 (Herbicidal rate of 70% or more and less than 90%) | 0 (Herbicidal rate of 5% or less (almost no effect)) | 3 (Herbicidal rate of 40% or more and less than 70%) | 3 (Herbicidal rate of 40% or more and less than 70%) | 2 (Herbicidal rate of 20% or more and less than 40%) | 3 (Herbicidal rate of 40% or more and less than 70%) | 2 (Herbicidal rate of 20% or more and less than 40%) | 0 (Herbicidal rate of 5% or less (almost no effect)) | 5 (Herbicidal rate of 90% or more (almost completely withered)) | 5 (Herbicidal rate of 90% or more (almost completely withered)) | 5 (Herbicidal rate of 90% or more (almost completely withered)) | 1 (Herbicidal rate of 5% or more and less than 20%) | 0 (Herbicidal rate of 5% or less (almost no effect)) | 3 (Herbicidal rate of 40% or more and less than 70%) | 4 (Herbicidal rate of 70% or more and less than 90%) | 0 (Herbicidal rate of 5% or less (almost no effect)) | 5 (Herbicidal rate of 90% or more (almost completely withered)) |
